Experimental data reported in patent US5180716A, “Cyclodextrin complexes for neuraxial administration of drugs” (The Regents of the University of California, priority 1990, dated 1993).

Columns and labels:
[1] = rat, in vivo
[2] = guinea pig, in vivo
[3] = dog, in vivo
[4] = oral administration; cited from earlier work
substance P = conditions: rat, in vivo
Protocol: (§1) Lumbar intrathecal injections--rats: Rats (250-350 gm) were prepared with chronic intrathecal catheters placed in the lumbar intrathecal space. They received intrathecal administration of 15 μl of 25% CDEX. […] At 7 days, the levels of neuropeptides substance P and calcitonin gene-related peptide (CGRP) were measured after extraction of tissue, using radioimmunoassays.

[5] = tested on: calcitonin gene-related peptide (CGRP); conditions: rat, in vivo
Protocol: as §1

In the case of 2-hydroxypropyl-β-cyclodextrin [CDEX], the EEG activity [1] was “no effect”, the general motor behavior [1] was “no effect” and the “acute behavioral signs of agitation (irritation)” value [2] was “no acute behavioral signs of agitation”. The “motor function (placing, stepping and righting reflexes or ambulatory tests)” value [2] was “no changes”, the urine staining [2] was “No evidence of urine staining” and the bladder function [3] was “no effect”. For the same compound, the heart rate [3] was “no effect”, the skin twitch response [3] was “no effect” and the toxicity [3] was “lack of toxicity”.
For `CS(=O)(=O)OCCCCOS(C)(=O)=O` [Busulfan, busulfan], the bone marrow depression [4] is listed as “severe bone marrow depression”.
In the case of `C[S+](C)[O-]` [dimethyl sulfoxide], the “tissue level of substance P” value (substance P) was “significant reduction” and the “tissue level of CGRP” value [5] was “significant reduction”.
